pIC50: −log10 of the molar value. ≈ marks a conversion by molar mass, not a printed value. Read-outs that look alike come from different tables or passages of the source.
How the values were obtained:
[1] = target: T1, Escherichia coli LpxC enzyme (Escherichia coli, UniProt P0A725); test: Inhibitory activity on Escherichia coli LpxC enzyme (fluorescamine method); format: biochemical
T1 construct: made in house; host or cells: Escherichia coli
T1 sequence (P0A725 1-305): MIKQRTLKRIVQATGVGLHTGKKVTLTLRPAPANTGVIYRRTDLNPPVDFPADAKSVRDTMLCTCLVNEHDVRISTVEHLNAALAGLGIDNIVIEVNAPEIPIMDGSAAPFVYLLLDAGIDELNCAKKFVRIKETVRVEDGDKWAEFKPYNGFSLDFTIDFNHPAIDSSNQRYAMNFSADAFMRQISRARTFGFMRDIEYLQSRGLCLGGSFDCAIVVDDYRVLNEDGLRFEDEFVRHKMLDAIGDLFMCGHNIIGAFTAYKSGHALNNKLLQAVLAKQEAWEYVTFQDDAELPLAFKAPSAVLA
Method in brief: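 LpxC reacted with UDP-3-O-(R-3-hydroxymyristoyl)-N-acetylglucosamine; product amine quantified after fluorescamine stop and pH 8.0 phosphate buffer addition, at 390 nm/495 nm. Inhibition curve built from a range of test compound concentrations.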

[2] = test system: Escherichia coli strain ATCC25922; test: Antimicrobial activity, MIC by broth microdilution; format: cell-based; conditions: ATCC25922, 18 h, cation-adjusted Mueller-Hinton broth, about 5×10^5 CFU/mL, 35° C., about 18 hours, read-out: MIC Escherichia coli ATCC25922
Method in brief: (§1)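 CLSI-based broth microdilution in cation-adjusted Mueller-Hinton broth, inoculum about 5×10^5 CFU/mL from overnight heart infusion agar culture. Incubation 35° C. about 18 h; MIC is the lowest concentration with no visible growth.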

[3] = test system: Klebsiella pneumoniae strain ATCC13883; test: Antimicrobial activity, MIC by broth microdilution; format: cell-based; conditions: ATCC13883, cation-adjusted Mueller-Hinton broth, about 5×10^5 CFU/mL, 35° C., about 18 hours, read-out: MIC Klebsiella pneumoniae ATCC13883
Method in brief: as §1

[4] = test system: Pseudomonas aeruginosa strain ATCC27853; test: Antimicrobial activity, MIC by broth microdilution; format: cell-based; conditions: ATCC27853, 18 h, cation-adjusted Mueller-Hinton broth, about 5×10^5 CFU/mL, 35° C., about 18 hours, read-out: MIC Pseudomonas aeruginosa ATCC27853
Method in brief: as §1

[5] = fluorescamine detection, 3.1 nmol/L enzyme, 20 μmol/L substrate, pH 6.5, 120 min, read-out: IC50 (inhibitory activity on Escherichia coli LpxC enzyme, Fluoresamine method)

CC(=O)N1C[C@@H]2[C@@H](C#Cc3ccc(-c4cc(Cn5ccnc5[C@H](C)O)on4)cc3)[C@@H]2C1 [Compound 86, 1-[(1R,5S,6s)-6-({4-[5-((2-[(1S)-1-hydroxyethyl]-1H-imidazol-1-yl}methyl)-1,2-oxazol-3-yl]phenyl}ethynyl)-3-azabicyclo[3.1.0]hexan-3-yl]ethan-1-one]
pIC50 [1, 5]: 7.33 | MIC [2]: 1 µg/mL (≈ 2.4 µM) | MIC [3]: 1 µg/mL (≈ 2.4 µM) | MIC [4]: 32 µg/mL (≈ 76.8 µM)

CC(=O)N[C@H]1C[C@H](C#Cc2ccc(-c3cc(Cn4ccnc4[C@H](C)O)no3)cc2)C1 [Compound 87, N-[trans-3-({4-[3-({2-[(1S)-1-hydroxyethyl]-1H-imidazol-1-yl}methyl)-1,2-oxazol-5-yl]phenyl}ethynyl)cyclobutyl]acetamide]
pIC50 [1, 5]: 7.60 | MIC [2]: 0.5 µg/mL (≈ 1.24 µM) | MIC [3]: 1 µg/mL (≈ 2.47 µM) | MIC [4]: > 128 µg/mL

CNC(=O)N1C[C@@H]2[C@@H](C#Cc3ccc(-c4cc(Cn5ccnc5[C@H](C)O)no4)cc3)[C@@H]2C1 [Compound 92, (1R,5S,6s)-6-({4-[3-({2-[(1S)-1-Hydroxyethyl]-1H-imidazol-1-yl}methyl)-1,2-oxazol-5-yl]phenyl}ethynyl)-N-methyl-3-azabicyclo[3.1.0]hexan-3-carboxamide]
pIC50 [1, 5]: 7.26 | MIC [2]: 0.5 µg/mL (≈ 1.16 µM) | MIC [3]: 1 µg/mL (≈ 2.32 µM) | MIC [4]: 16 µg/mL (≈ 37.1 µM)

C[C@H](O)c1nccn1Cc1cc(-c2ccc(C#C[C@@H]3[C@H]4CN(CCCCC(=O)O)C[C@@H]34)cc2)on1 [Compound 93, 5-[(1R,5S,6s)-6-({4-[3-((2-[(1S)-1-hydroxyethyl]-1H-imidazol-1-yl}methyl)-1,2-oxazol-5-yl]phenyl}ethynyl)-3-azabicyclo[3.1.0]hexan-3-yl]pentanoic acid]
pIC50 [1, 5]: 6.43 | MIC [2]: 4 µg/mL (≈ 8.43 µM) | MIC [3]: 4 µg/mL (≈ 8.43 µM) | MIC [4]: 8 µg/mL (≈ 16.9 µM)

C[C@H](O)c1nccn1Cc1cc(-c2ccc(C#C[C@@H]3[C@H]4CN(CCCCCC(=O)O)C[C@@H]34)cc2)on1 [Compound 94, 6-[(1R,5S,6s)-6-({4-[3-({2-[(1S)-1-hydroxyethyl]-1H-imidazol-1-yl}methyl)-1,2-oxazol-5-yl]phenyl}ethynyl)-3-azabicyclo[3.1.0]hexan-3-yl]hexanoic acid]
pIC50 [1, 5]: 6.39 | MIC [2]: 2 µg/mL (≈ 4.09 µM) | MIC [3]: 4 µg/mL (≈ 8.19 µM) | MIC [4]: 16 µg/mL (≈ 32.7 µM)

C[C@H](O)c1nccn1Cc1cc(-c2ccc(C#C[C@@H]3[C@H]4CN(C(=O)CCC(=O)O)C[C@@H]34)cc2)on1 [Compound 95, 4-[(1R,5S,6s)-6-({4-[3-({2-[(1S)-1-hydroxyethyl]-1H-imidazol-1-yl}methyl)-1,2-oxazol-5-yl]phenyl}ethynyl)-3-azabicyclo[3.1.0]hexan-3-yl]-4-oxobutanoic acid]
pIC50 [1, 5]: 6.87 | MIC [2]: 2 µg/mL (≈ 4.21 µM) | MIC [3]: 4 µg/mL (≈ 8.43 µM) | MIC [4]: 16 µg/mL (≈ 33.7 µM)

C[C@H](O)c1nccn1[C@H](CO)c1cc(-c2ccc(C#C[C@@H]3[C@H]4CN(CCO)C[C@@H]34)cc2)on1 [Compound 96, (2S)-2-[5-(4-{[(1R,5S,6s)-3-(2-hydroxyethyl)-3-azabicyclo[3.1.0]hexan-6-yl]ethynyl}phenyl)-1,2-oxazol-3-yl]-2-{2-[(1S)-1-hydroxyethyl]-1H-imidazol-1-yl}ethan-1-ol]
pIC50 [1, 5]: 6.59 | MIC [2]: 1 µg/mL (≈ 2.23 µM) | MIC [3]: 2 µg/mL (≈ 4.46 µM) | MIC [4]: 4 µg/mL (≈ 8.92 µM)

C[C@H](O)c1nccn1Cc1cc(-c2ccc(C#CC3CC(N(C)C)C3)cc2)on1 (stereo partly drawn) [Compound 97, (1S)-1-(i{[5-(4-{[3-(dimethylamino)cyclobutyl]ethynyl}phenyl)-1,2-oxazol-3-yl]methyl}-1H-imidazol-2-yl)ethan-1-ol]
pIC50 [1, 5]: 7.00 | MIC [2]: 4 µg/mL (≈ 10.2 µM) | MIC [3]: 8 µg/mL (≈ 20.5 µM) | MIC [4]: 32 µg/mL (≈ 81.9 µM)

C[C@H](O)c1nccn1Cc1cc(-c2ccc(C#CC3CC(NC4CC4)C3)cc2)on1 (stereo partly drawn) [Compound 98, (1S)-1-(1-{[5-(4-{[3-(cyclopropylamino)cyclobutyl]ethynyl}phenyl)-1,2-oxazol-3-yl]methyl}-1H-imidazol-2-yl)ethan-1-ol]
pIC50 [1, 5]: 7.29 | MIC [2]: 0.25 µg/mL (≈ 0.621 µM) | MIC [3]: 0.5 µg/mL (≈ 1.24 µM) | MIC [4]: 16 µg/mL (≈ 39.8 µM)

CCN1C[C@@H]2[C@@H](C#Cc3ccc(-c4cc(Cn5ccnc5[C@H](C)O)no4)cc3)[C@@H]2C1 [Compound 99, (1S)-1-(1-{[5-(4-{[(1R,5S,6s)-3-ethyl-3-azabicyclo[3.1.0]hexan-6-yl]ethynyl}phenyl)-1,2-oxazol-3-yl]methyl}-1H-imidazol-2-yl)ethan-1-ol]
pIC50 [1, 5]: 7.04 | MIC [2]: 2 µg/mL (≈ 4.97 µM) | MIC [3]: 2 µg/mL (≈ 4.97 µM) | MIC [4]: 16 µg/mL (≈ 39.8 µM)

C[C@H](O)c1nccn1Cc1cc(-c2ccc(C#C[C@@H]3[C@H]4CN(C=O)C[C@@H]34)cc2)no1 [Compound 102, (1R,5S,6s)-6-({4-[5-({2-[(1S)-1-hydroxyethyl]-1H-imidazol-1-yl}methyl)-1,2-oxazol-3-yl]phenyl}ethynyl)-3-azabicyclo[3.1.0]hexane-3-carbaldehyde]
pIC50 [1, 5]: 6.99 | MIC [2]: 0.5 µg/mL (≈ 1.24 µM) | MIC [3]: 1 µg/mL (≈ 2.48 µM) | MIC [4]: 64 µg/mL (≈ 159 µM)

C[C@H](O)c1nccn1Cc1cc(-c2ccc(C#C[C@H]3C[C@H](NC=O)C3)cc2)on1 [Compound 103, N-[trans-3-({4-[3-({2-[(1S)-1-Hydroxyethyl]-1H-imidazol-1-yl}methyl)-1,2-oxazol-5-yl]phenyl}ethynyl)cyclobutyl]formamide]
pIC50 [1]: 7.06 | MIC [2]: 1 µg/mL (≈ 2.56 µM) | MIC [3]: 2 µg/mL (≈ 5.12 µM) | MIC [4]: > 128 µg/mL

CNC(=O)C(=O)N1C[C@@H]2[C@@H](C#Cc3ccc(-c4cc(Cn5ccnc5[C@H](C)O)no4)cc3)[C@@H]2C1 [Compound 105, 2-[(1R,5S,6s)-6-({4-[3-({2-[(1S)-1-Hydroxyethyl]-1H-imidazol-1-yl}methyl)-1,2-oxazol-5-yl]phenyl}ethynyl)-3-azabicyclo[3.1.0]hexan-3-yl]-N-methyl-2-oxoacetamide]
pIC50 [1, 5]: 7.20 | MIC [2]: 1 µg/mL (≈ 2.18 µM) | MIC [3]: 1 µg/mL (≈ 2.18 µM) | MIC [4]: 16 µg/mL (≈ 34.8 µM)

C[C@H](O)c1nccn1Cc1cc(-c2ccc(C#C[C@@H]3[C@H]4CN(C(=O)C(N)=O)C[C@@H]34)cc2)on1 [Compound 107, 2-[(1R,5S,6s)-6-((4-[3-((2-[(1S)-1-hydroxyethyl]-1H-imidazol-1-yl}methyl)-1,2-oxazol-5-yl]phenyl}ethynyl)-3-azabicyclo[3.1.0]hexan-3-yl]-2-oxoacetamide]
pIC50 [1, 5]: 7.10 | MIC [2]: 2 µg/mL (≈ 4.49 µM) | MIC [3]: 1 µg/mL (≈ 2.24 µM) | MIC [4]: 8 µg/mL (≈ 18 µM)

C[C@H](O)c1nccn1Cc1cc(-c2ccc(C#C[C@@H]3[C@H]4CN(C(=O)C(=O)N(C)C)C[C@@H]34)cc2)on1 [Compound 108, 2-[(1R,5S,6s)-6-((4-[3-((2-[(1S)-1-hydroxyethyl]-1H-imidazol-1-yl}methyl)-1,2-oxazol-5-yl]phenyl}ethynyl)-3-azabicyclo[3.1.0]hexan-3-yl]-N,N-dimethyl-2-oxoacetamide]
pIC50 [1, 5]: 6.91 | MIC [2]: 4 µg/mL (≈ 8.45 µM) | MIC [3]: 4 µg/mL (≈ 8.45 µM) | MIC [4]: 16 µg/mL (≈ 33.8 µM)

C[C@H](O)c1nccn1Cc1cc(-c2ccc(C#CC3C(CO)C3CO)cc2)on1 (stereo partly drawn) [Compound 109, (1S)-1-(1-{[5-(4-{[2,3-Bis(hydroxymethyl)cyclopropyl]ethynyl}phenyl)-1,2-oxazol-3-yl]methyl}-1H-imidazol-2-yl)ethan-1-ol]
pIC50 [1]: 6.88 | MIC [2]: 16 µg/mL (≈ 40.7 µM) | MIC [3]: 32 µg/mL (≈ 81.3 µM) | MIC [4]: 64 µg/mL (≈ 163 µM)

C[C@H](O)c1nccn1Cc1cc(-c2ccc(C#C[C@@H]3[C@H]4CN(CCCC(=O)O)C[C@@H]34)cc2)no1 [Compound 111, 4-[(1R,5S,6s)-6-({4-[5-({2-[(1S)-1-hydroxyethyl]-1H-imidazol-1-yl}methyl)-1,2-oxazol-3-yl]phenyl}ethynyl)-3-azabicyclo[3.1.0]hexan-3-yl]butanoic acid]
pIC50 [1, 5]: 6.71 | MIC [2]: 1 µg/mL (≈ 2.17 µM) | MIC [3]: 4 µg/mL (≈ 8.69 µM) | MIC [4]: 8 µg/mL (≈ 17.4 µM)

C[C@H](O)c1nccn1Cc1cc(-c2ccc(C#CC3CC(NC4COC4)C3)cc2)on1 (stereo partly drawn) [Compound 112, (1S)-1-[l-({5-[4-({3-[(oxetan-3-yl)amino]cyclobutyl}ethynyl)phenyl]-1,2-oxazol-3-yl}methyl)-1H-imidazol-2-yl]ethan-1-ol]
pIC50 [1]: 7.10 | MIC [2]: 0.5 µg/mL (≈ 1.19 µM) | MIC [3]: 1 µg/mL (≈ 2.39 µM) | MIC [4]: 32 µg/mL (≈ 76.5 µM)

C[C@H](O)c1nccn1[C@H](CN)c1cc(-c2ccc(C#CC3(C)COC3)cc2)on1 [Compound 116, (1S)-1-{1-[(1R)-2-amino-1-(5-{4-[(3-methyloxetan-3-yl)ethynyl]phenyl}-1,2-oxazol-3-yl)ethyl]-1H-imidazol-2-yl}ethan-1-ol]
pIC50 [1, 5]: 7.10 | MIC [2]: 0.5 µg/mL (≈ 1.27 µM) | MIC [3]: 2 µg/mL (≈ 5.1 µM) | MIC [4]: 64 µg/mL (≈ 163 µM)

C[C@H](O)c1nccn1Cc1cc(-c2ccc(C#CC3CCS(=O)(=O)C3)cc2)on1 (stereo partly drawn) [Compound 119, 3-((4-(3-((2-((S)-1-hydroxyethyl)-1H-imidazol-1-yl)methyl)isoxazol-5-yl)phenyl)ethynyl)tetrahydrothiophene 1,1-dioxide]
pIC50 [1, 5]: 6.58 | MIC [2]: 8 µg/mL (≈ 19.4 µM) | MIC [3]: 16 µg/mL (≈ 38.9 µM) | MIC [4]: > 128 µg/mL

Reference: patent publication US20220002279A1, “NOVEL IMIDAZOLE DERIVATIVE” (priority 2018, published 2022)
